According to patent publication US10487087B2, “Positive allosteric modulators of the GLP-1 receptor” (Vanderbilt University, priority 2015, dated 2019):

Legend:
[1] = target: T1, human GLP-1R (Homo sapiens (Human), UniProt P43220); assay: GLP-1 assay with GLP1 endogenous agonist (calcium mobilization, EC20 GLP-1 peptide 7-36 amide); format: cell-based; details: calcium flux; for Emax at 30 µM: 30 μM compound, EC20 of GLP-1 7-36 amide; for EC50: potentiation of EC20 GLP-1 7-36 amide
Source text: A. GLP-1 Assay with GLP1 Endogenous Agonist
(§1) To assess the effects of test compounds on GLP-1 or glucagon potency and efficacy, a high-throughput calcium mobilization assay was used essentially as previously described (Morris L C, Days E L, Turney M, Mi D, Lindsley C W, Weaver C D, Niswender K D, A Duplexed High-Throughput Screen to Identify Allosteric Modulators of the Glucagon-Like Peptide 1 and Glucagon Receptors. J. Biomol. Screen. 2014 Feb. 13, 19(6):847-858). Briefly, human GLP-1R or Glucagon Receptor 9-3-H cells over-expressing a promiscuous G-protein (Millipore, Billerica, Mass.) were plated at 15,000 cells/well in black-walled 384-well plates (Greiner Bio-one, Monroe, N.C.) in Dulbecco's Modified Eagles Medium (DMEM) with 10% FCS, 4.0 mM L-glutamine, non-essential amino acids (NEAAs), and 10.0 mM HEPES without antibiotics. After overnight attachment, cells were washed twice with assay buffer (HBSS supplemented with 20 mM HEPES and 1.0 mM probenecid) using an ELx405CW cell washer (Bio-Tek, Winooski, Vt.) and then loaded with the calcium sensitive dye fluo-4 AM (Invitrogen, Grand Island, N.Y.) at a final concentration of 2.0 μM in assay buffer. After a 45-minute incubation at room temperature, the dye was removed by washing, leaving 20 μL of assay buffer. Next, the cell plate was introduced alongside a 384-well compound plate containing 0.1% final DMSO control wells and 11-point concentration response curves of putative GLP-1 PAMs created using a non-pipet based liquid transfer instrument, ECH0555 (Labcyte, Sunnyvale, Calif.). After a 20 μL compound addition to the appropriate wells, kinetic fluorescent measurements were collected for 2 minutes using an FDSS6000 (Hamamatsu, Bridgewater, N.J.) with 488 nm excitation and 480/540 emission filters. After 2 minutes, 10 μL of an EC20 concentration of GLP-1 peptide 7-36 amide (Phoenix Pharmaceuticals, Burlingame, Calif.), Glucagon (Phoenix Pharmaceuticals, Burlingame, Calif.) Exendin-4 (Tocris Bioscience, Bristol, UK), or Liraglutide (Victoza™, Novo-Nordisk, Denmark) was added and fluorescence was monitored for an additional 2 minutes to observe potentiation of the calcium flux signal. […] Recombinant peptides were reconstituted into assay buffer supplemented with 0.1% fatty acid free BSA (Sigma #A6003) and diluted into borosilicate glass tubes to maximize peptide recovery (Goebel-Stengel M, Stengel A, Tache Y, Reeve J R Jr., The importance of using the optimal plasticware and glassware in studies involving peptides. Anal. Biochem. 2011 Jul. 1, 414(1):38-46).
(§2) Data is from a single experiment unless otherwise noted. Data that is an average of two experiments is noted as “n=2” while data that is an average of three or more experiments is presented as the average plus or minus the standard error of the mean.

[2] = target: T1, human GLP-1R; assay: GLP-1 assay with EX-4 synthetic agonist (calcium mobilization, EC20 EX-4); format: cell-based; details: calcium flux; for Emax at 30 µM: 30 μM compound, EC20 of EX-4; for EC50: potentiation of EC20 EX-4, read-out: GLP1 EC50 (Ex-4 synthetic agonist)
Source text: B. GLP-1 Assay with EX-4 Synthetic Agonist
as §1, with “L-glutamine, 1×” for “L-glutamine,”, “EL×405CW” for “ELx405CW”, “EX-4” for “GLP-1 peptide 7-36 amide”, “Taché” for “Tache”
as §2

T1 sequence (P43220 24-463): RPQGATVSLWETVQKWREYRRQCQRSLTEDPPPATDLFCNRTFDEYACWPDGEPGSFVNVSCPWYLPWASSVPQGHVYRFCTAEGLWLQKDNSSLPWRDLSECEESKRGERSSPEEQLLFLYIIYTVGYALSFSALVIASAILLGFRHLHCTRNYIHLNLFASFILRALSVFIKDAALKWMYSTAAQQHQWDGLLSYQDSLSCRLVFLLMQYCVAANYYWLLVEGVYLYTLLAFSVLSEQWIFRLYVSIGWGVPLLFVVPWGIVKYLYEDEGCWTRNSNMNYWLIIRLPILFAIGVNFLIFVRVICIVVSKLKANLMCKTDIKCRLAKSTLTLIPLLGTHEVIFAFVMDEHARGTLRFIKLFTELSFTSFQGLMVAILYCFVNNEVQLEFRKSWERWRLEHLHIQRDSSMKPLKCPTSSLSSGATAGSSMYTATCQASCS

| Compound | Emax at 30 µM [1] [%] | EC50 [1] [µM] | Emax at 30 µM [2] [%] | EC50 [2] [µM] |
| --- | --- | --- | --- | --- |
| Cc1c2ccccc2n2c(C(=O)NC[C@H]3CCCN3C(C)C)cn([C@H]3CCOC3)c(=O)c12 [Compound 5, N-(((R)-1-isopropylpyrrolidin-2-yl)methyl)-10-methyl-1-oxo-2-((S)-tetrahydrofuran-3-yl)-1,2-dihydropyrazino[1,2-a]indole-4-carboxamide] | 56 | 4.2 | 55 | 5.9 |
| Cc1c2n(c3ccccc13)C(C(=O)NC[C@@H]1CCCN1C(C)C)CN(C1CCCC1)C2=O (stereo partly drawn) [Compound 3, 2-cyclopentyl-N-(((S)-1-isopropylpyrrolidin-2-yl)methyl)-10-methyl-1-oxo-1,2,3,4-tetrahydropyrazino[1,2-a]indole-4-carboxamide] | 50 | 5.7 | 55 | 11 |
| CC(C)N1CCC[C@H]1CNC(=O)c1cn(C2CCCC2)c(=O)c2c(C#N)c3ccccc3n12 [Compound 16, (S)-10-cyano-2-cyclopentyl-N-((1-isopropylpyrrolidin-2-yl)methyl)-1-oxo-1,2-dihydropyrazino[1,2-a]indole-4-carboxamide] | 43 | 1.9 |  |  |
| Cc1c2n(c3ccccc13)[C@H](C(=O)NC[C@@H]1CCCN1C(C)C)CN(C1CCCC1)C2=O [Compound 9, (S)-2-cyclopentyl-N-(((S)-1-isopropylpyrrolidin-2-yl)methyl)-10-methyl-1-oxo-1,2,3,4-tetrahydropyrazino[1,2-a]indole-4-carboxamide] | 40 | > 30 | 33 | > 30 |
| CC(C)N1CCC[C@H]1CNC(=O)c1cn(C2CCCC2)c(=O)c2c(Cl)c3ccccc3n12 [Compound 10, (S)-10-chloro-2-cyclopentyl-N-((1-isopropylpyrrolidin-2-yl)methyl)-1-oxo-1,2-dihydropyrazino[1,2-a]indole-4-carboxamide] | 61 | 1.3 | 57 | 1.5 |
| Cc1c2cc(F)ccc2n2c(C(=O)NC[C@H]3CCCN3C(C)C)cn(C3CCCC3)c(=O)c12 [Compound 7, (R)-2-cyclopentyl-8-fluoro-N-((1-isopropylpyrrolidin-2-yl)methyl)-10-methyl-1-oxo-1,2-dihydropyrazino[1,2-a]indole-4-carboxamide] |  | > 30 |  | > 30 |
| Cc1c2ccccc2n2c(C(=O)NC[C@@H]3CCCN3C(C)C)cn(-c3ccccc3)c(=O)c12 [Compound 14, (S)-N-((1-isopropylpyrrolidin-2-yl)methyl)-10-methyl-1-oxo-2-phenyl-1,2-dihydropyrazino[1,2-a]indole-4-carboxamide] | 45 | 13 |  |  |
| C=Cc1c2ccccc2n2c(C(=O)NC[C@@H]3CCCN3C(C)C)cn(C3CCCC3)c(=O)c12 [Compound 17, (S)-2-cyclopentyl-N-((1-isopropylpyrrolidin-2-yl)methyl)-1-oxo-10-vinyl-1,2-dihydro-pyrazino[1,2-a]indole-4-carboxamide] | 37 | 9.6 |  |  |
| CC(C)N1CCC[C@@H]1CNC(=O)c1cn(C2CCCC2)c(=O)c2c(Br)c3ccccc3n12 [Compound 13, (R)-10-bromo-2-cyclopentyl-N-((1-isopropylpyrrolidin-2-yl)methyl)-1-oxo-1,2-dihydropyrazino[1,2-a]indole-4-carboxamide] | 39 | > 30 |  | > 30 |
| Cc1c2ccccc2n2c(C(=O)NC[C@H]3CCCN3C(C)C)cn(-c3ccccc3)c(=O)c12 [Compound 15, (R)-N-((1-isopropylpyrrolidin-2-yl)methyl)-10-methyl-1-oxo-2-phenyl-1,2-dihydropyrazino[1,2-a]indole-4-carboxamide] |  | > 30 |  |  |

The remaining lines, values ahead:

| Emax at 30 µM [1] [%] | EC50 [1] [µM] | Emax at 30 µM [2] [%] | EC50 [2] [µM] | Compound |
| --- | --- | --- | --- | --- |
|  | > 30 |  |  | Cc1c2ccccc2n2c(C(=O)NC[C@H]3CCCN3C(C)C)cn(-c3cnn(C)c3)c(=O)c12 [Compound 19, (R)-N-((1-isopropylpyrrolidin-2-yl)methyl)-10-methyl-2-(1-methyl-1H-pyrazol-4-yl)-1-oxo-1,2-dihydropyrazino[1,2-a]indole-4-carboxamide] |
|  | > 30 |  |  | Cc1c2ccccc2n2c(C(=O)NC[C@H]3CCCN3C(C)C)cn(-c3cccnc3)c(=O)c12 [Compound 21, (R)-N-((1-isopropylpyrrolidin-2-yl)methyl)-10-methyl-1-oxo-2-(pyridin-3-yl)-1,2-dihydropyrazino[1,2-a]indole-4-carboxamide] |
|  | > 30 |  |  | Cc1c2ccccc2n2c(C(=O)O)cn(C3CCCC3)c(=O)c12 [Compound I, 2-Cyclopentyl-10-methyl-1-oxo-1,2-dihydropyrazino[1,2-a]indole-4-carboxylic acid] |
| 34 | 6.7 |  |  | Cc1c2ccccc2n2c(C(=O)NC[C@@H]3CCCN3C(C)C)cn(-c3cnn(C)c3)c(=O)c12 [Compound 18, (S)-N-((1-isopropylpyrrolidin-2-yl)methyl)-10-methyl-2-(1-methyl-1H-pyrazol-4-yl)-1-oxo-1,2-dihydropyrazino[1,2-a]indole-4-carboxamide] |
| 51 | 12 |  |  | Cc1c2ccccc2n2c(C(=O)NCC3CCN3C(C)C)cn(C3CCCC3)c(=O)c12 (stereo not drawn) [Compound 24, 2-cyclopentyl-N-((1-isopropylazetidin-2-yl)methyl)-10-methyl-1-oxo-1,2-dihydropyrazino[1,2-a]indole-4-carboxamide] |
|  | > 30 |  |  | Cc1c2ccccc2n2c(C(=O)NCC3CCN3)cn(C3CCCC3)c(=O)c12 (stereo not drawn) [Compound 22, N-(azetidin-2-ylmethyl)-2-cyclopentyl-10-methyl-1-oxo-1,2-dihydropyrazino[1,2-a]indole-4-carboxamide] |
| 36 | 5.2 |  |  | Cc1c2ccccc2n2c(C(=O)NC[C@@H]3CCCN3C(C)C)cn(-c3cccnc3)c(=O)c12 [Compound 20, (S)-N-((1-isopropylpyrrolidin-2-yl)methyl)-10-methyl-1-oxo-2-(pyridin-3-yl)-1,2-dihydropyrazino[1,2-a]indole-4-carboxamide] |
|  | > 30 |  |  | Cc1c2ccccc2n2c(CO)cn(C3CCCC3)c(=O)c12 [Compound 23, 2-cyclopentyl-4-(hydroxymethyl)-10-methylpyrazino[1,2-a]indol-1(2H)-one] |
